From ChEMBL document CHEMBL1212796, “Ineffectiveness of tigecycline against persistent Borrelia burgdorferi” (2010)
In brackets after ≈: the same amount, converted by molar mass. Activity calls are given as the source filed them. The calls are words filed in the database; no cut-off is given here.

Columns and labels:
Borrelia burgdorferi [1] = assay: Antimicrobial activity against Borrelia burgdorferi N40; type: functional; settings: Borreliella burgdorferi
Borrelia burgdorferi [2] = assay: Antimicrobial activity against Borrelia burgdorferi B31; type: functional; settings: Borreliella burgdorferi
[3] = Reduction in beta-actin gene expression in heart base tissue Borrelia burgdorferi infected mouse at 50 mg/kg; type: functional, organism-based; set-up: dose 50 mg/kg; settings: Borreliella burgdorferi
[4] = Reduction in ospA gene expression assessed as gene copies in per mg of SCID mouse ventricular/quadriceps tissue receiving Borrelia burgdorferi infected nymphal ticks from 50 mg/kg treated mouse; type: functional, organism-based; set-up: dose 50 mg/kg; settings: Borreliella burgdorferi; Cardiac ventricle; at 50 mg/kg
[5] = Reduction in flaB gene expression in heart base tissue Borrelia burgdorferi infected mouse at 50 mg/kg; type: functional, organism-based; set-up: dose 50 mg/kg; settings: Borreliella burgdorferi
[6] = Reduction in flaB gene expression in heart base tissue Borrelia burgdorferi infected mouse at 12.5 mg/kg; type: functional, organism-based; set-up: dose 12.5 mg/kg; settings: Borreliella burgdorferi
[7] = Reduction in arp gene expression in heart base tissue Borrelia burgdorferi infected mouse at 50 mg/kg; type: functional, organism-based; set-up: dose 50 mg/kg; settings: Borreliella burgdorferi
[8] = Reduction in arp gene expression in heart base tissue Borrelia burgdorferi infected mouse at 12.5 mg/kg; type: functional, organism-based; set-up: dose 12.5 mg/kg; settings: Borreliella burgdorferi
[9] = Reduction in ospA gene expression in heart base tissue Borrelia burgdorferi infected mouse at 50 mg/kg; type: functional, organism-based; set-up: dose 50 mg/kg; settings: Borreliella burgdorferi
[10] = Reduction in dbpA gene expression in heart base tissue Borrelia burgdorferi infected mouse at 50 mg/kg; type: functional, organism-based; set-up: dose 50 mg/kg; settings: Borreliella burgdorferi
[11] = Reduction in ospA gene expression in heart base tissue of SCID mouse transplanted with tibiotarsal and heart base tissue from Borrelia burgdorferi infected 50 mg/kg treated mouse; type: functional, organism-based; set-up: dose 50 mg/kg; settings: Borreliella burgdorferi, at 50 mg/kg
[12] = Reduction in oppA-2 gene expression in heart base tissue Borrelia burgdorferi infected mouse at 50 mg/kg; type: functional, organism-based; set-up: dose 50 mg/kg; settings: Borreliella burgdorferi
[13] = Reduction in beta-Actin gene expression in heart base tissue Borrelia burgdorferi infected mouse at 12.5 mg/kg; type: functional, organism-based; set-up: dose 12.5 mg/kg; settings: Borreliella burgdorferi
[14] = Reduction in ospA gene expression in heart base tissue of SCID mouse transplanted with tibiotarsal and heart base tissue from Borrelia burgdorferi infected 12.5 mg/kg treated mouse; type: functional, organism-based; set-up: dose 12.5 mg/kg; settings: Borreliella burgdorferi, at 12.5 mg/kg

Row | Compound | MIC (Borrelia burgdorferi [1]) | MIC (Borrelia burgdorferi [2]) | inhibition [3] | inhibition [4] | inhibition [5] | inhibition [6] | inhibition [7] | inhibition [8] | inhibition [9] | inhibition [10] | inhibition [11] | inhibition [12] | inhibition [13] | inhibition [14]
1 | CC1(C)S[C@@H]2[C@H](NC(=O)Cc3ccccc3)C(=O)N2[C@H]1C(=O)O [PENICILLIN G] | 0.024 µg/mL (≈ 0.0718 µM) | 0.024 µg/mL (≈ 0.0718 µM) |  |  |  |  |  |  |  |  |  |  |  | 
2 | CN(C)c1cc(NC(=O)CNC(C)(C)C)c(O)c2c1C[C@H]1C[C@H]3[C@H](N(C)C)C(O)=C(C(N)=O)C(=O)[C@@]3(O)C(O)=C1C2=O [TIGECYCLINE] | 0.006 µg/mL (≈ 0.0102 µM) | 0.006 µg/mL (≈ 0.0102 µM) | inactive | Active | Active | Active | Active | Active | Active | Active | Active | inactive | inactive | 
3 | C[C@H]1c2cccc(O)c2C(=O)C2=C(O)[C@]3(O)C(=O)C(C(N)=O)=C(O)[C@@H](N(C)C)[C@@H]3[C@@H](O)[C@@H]21.O [DOXYCYCLINE] | 0.78 µg/mL | 0.39 µg/mL |  |  |  |  |  |  |  |  |  |  |  | 
4 | CO/N=C(\C(=O)N[C@@H]1C(=O)N2C(C(=O)O)=C(CSc3nc(=O)c(O)nn3C)CS[C@H]12)c1csc(N)n1 [CEFTRIAXONE] | 0.048 µg/mL (≈ 0.0866 µM) | 0.012 µg/mL (≈ 0.0216 µM) |  |  |  |  |  |  |  |  |  |  |  | Active
